Source: publication PMC9060465 (Proceedings of the National Academy of Sciences of the …, 2022)

Experiments:
GLP-1R [1] = target: T1, GLP-1R (Homo sapiens, UniProt P43220); test: Ligand-induced GLP-1R internalization, SNAP-GLP-1R HEK293 cells; assay type: cell-based; settings: efficacy (% Top), percent internalization compared to maximal GLP-1; (SEM)
Target sequence in this assay (P43220 24-463): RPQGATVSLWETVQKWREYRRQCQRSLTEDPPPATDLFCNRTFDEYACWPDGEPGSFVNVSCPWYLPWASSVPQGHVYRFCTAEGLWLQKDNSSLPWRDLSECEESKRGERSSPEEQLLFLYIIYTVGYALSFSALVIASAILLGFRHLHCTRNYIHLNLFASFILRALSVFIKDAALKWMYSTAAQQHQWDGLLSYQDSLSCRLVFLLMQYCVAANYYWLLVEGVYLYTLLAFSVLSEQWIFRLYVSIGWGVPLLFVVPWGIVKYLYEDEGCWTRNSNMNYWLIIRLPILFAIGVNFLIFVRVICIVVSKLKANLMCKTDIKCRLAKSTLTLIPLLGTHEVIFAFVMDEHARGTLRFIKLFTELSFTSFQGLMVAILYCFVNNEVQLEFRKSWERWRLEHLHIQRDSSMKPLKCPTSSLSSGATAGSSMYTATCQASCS

GLP-1R [2] = target: T1, GLP-1R; test: GRK2 recruitment to the GLP-1R, NanoBRET; assay type: cell-based; set-up: expressed in transfected cells; host or cells: freestyle HEK cells; settings: efficacy (% Top), relative to maximal GLP-1; (SEM)
Protocol: After 48 h, transfected cells were incubated in phosphate-buffered saline (PBS) containing 0.1% (wt/vol) bovine casein and varying concentrations of the ligands. […]
The potency (EC50) and efficacy (% Top) for ligands to induce GLP-1R Internalization were
determined using diffusion-enhanced resonance energy transfer.
relative efficacy for NanoBRET assays. SPR data were analyzed using T200 evaluation software (Cytiva). All data are presented as geometric means with SEM and n values
(§1) according to established practices. ND, not determined. NA, not applicable.
Target sequence in this assay (P43220 24-463): as above
Target sequence in this assay (P25098 whole entry partner): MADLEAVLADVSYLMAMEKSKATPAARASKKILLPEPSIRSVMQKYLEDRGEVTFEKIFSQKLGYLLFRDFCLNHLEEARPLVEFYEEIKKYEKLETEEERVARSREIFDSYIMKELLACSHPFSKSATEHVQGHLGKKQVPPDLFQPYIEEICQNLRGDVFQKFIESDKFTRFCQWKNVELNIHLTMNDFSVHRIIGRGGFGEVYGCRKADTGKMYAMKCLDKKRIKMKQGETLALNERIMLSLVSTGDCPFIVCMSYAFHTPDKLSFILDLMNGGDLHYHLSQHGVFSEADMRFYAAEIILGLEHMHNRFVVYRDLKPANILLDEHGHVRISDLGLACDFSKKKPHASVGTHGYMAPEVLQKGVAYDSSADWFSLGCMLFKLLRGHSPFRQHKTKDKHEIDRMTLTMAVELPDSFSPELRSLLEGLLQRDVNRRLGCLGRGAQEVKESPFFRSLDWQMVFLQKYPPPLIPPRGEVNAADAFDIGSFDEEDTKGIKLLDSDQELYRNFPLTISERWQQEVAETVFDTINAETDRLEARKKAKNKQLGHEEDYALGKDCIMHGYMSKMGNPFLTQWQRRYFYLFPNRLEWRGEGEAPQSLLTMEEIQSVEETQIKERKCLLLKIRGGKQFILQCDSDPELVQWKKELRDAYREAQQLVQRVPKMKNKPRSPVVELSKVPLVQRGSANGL

GLP-1R [3] = target: T1, GLP-1R; test: β-arrestin 1 recruitment to the GLP-1R, NanoBRET; assay type: cell-based; set-up: expressed in transfected cells; settings: efficacy (% Top), relative efficacy to GLP-1; (SEM)
Protocol: Functional potency (EC50) […]
and efficacy (% Top) of ligands to induce Gα s -GTPγS binding and cAMP accumulation in HEK293 cells expressing GIPR were determined. The equilibrium affinity (KD) of ligands for the immobilized ectodomain of the GIPR were quantified by surface plasmon resonance. Middle Panel: The affinity (Ki) of ligands for the GLP-1R was […]
(§2) Functional potency (EC50) and efficacy (% Top) of ligands to induce Gα s-GTPγS binding and cAMP accumulation in HEK293 cells expressing GLP-1R were determined. The equilibrium affinity (KD) of ligands for the immobilized ectodomain of the GLP-1R were quantified by surface plasmon resonance. […]
recruitment to the GLP-1R were determined using the NanoBRET approach. The potency (EC50) and efficacy (% Top) for ligands to induce GLP-1R Internalization were determined using diffusion-enhanced resonance energy transfer. […]
relative efficacy for NanoBRET assays. SPR data were analyzed using T200 evaluation software (Cytiva). All data are presented as geometric means with SEM and n values according to established practices. ND, not determined. NA, not applicable.
Target sequence in this assay (P43220 24-463): as the sequence (P43220 24-463) above
Target sequence in this assay (P49407 whole entry partner): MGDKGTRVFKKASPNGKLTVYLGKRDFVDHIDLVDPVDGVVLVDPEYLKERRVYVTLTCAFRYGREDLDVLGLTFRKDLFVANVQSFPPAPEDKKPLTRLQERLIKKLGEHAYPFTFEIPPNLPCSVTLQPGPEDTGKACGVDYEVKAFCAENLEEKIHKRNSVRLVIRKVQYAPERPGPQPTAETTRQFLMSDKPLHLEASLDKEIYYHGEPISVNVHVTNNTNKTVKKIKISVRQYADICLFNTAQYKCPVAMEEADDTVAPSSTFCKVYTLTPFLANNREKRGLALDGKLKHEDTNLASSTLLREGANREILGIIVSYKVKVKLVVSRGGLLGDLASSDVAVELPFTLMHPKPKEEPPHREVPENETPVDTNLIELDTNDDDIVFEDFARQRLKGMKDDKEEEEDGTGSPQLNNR

human GIPR [4] = target: T2, human GIPR (Homo sapiens, UniProt P48546); test: [125I]GIP(1-42) competition binding, GIPR-expressing cell membranes; settings: membranes of HEK293 cells expressing human GIPR, albumin-free, geometric mean (SEM, n)
T2 construct: expressed in transfected cells; host or cells: HEK293
T2 sequence (P48546 22-466): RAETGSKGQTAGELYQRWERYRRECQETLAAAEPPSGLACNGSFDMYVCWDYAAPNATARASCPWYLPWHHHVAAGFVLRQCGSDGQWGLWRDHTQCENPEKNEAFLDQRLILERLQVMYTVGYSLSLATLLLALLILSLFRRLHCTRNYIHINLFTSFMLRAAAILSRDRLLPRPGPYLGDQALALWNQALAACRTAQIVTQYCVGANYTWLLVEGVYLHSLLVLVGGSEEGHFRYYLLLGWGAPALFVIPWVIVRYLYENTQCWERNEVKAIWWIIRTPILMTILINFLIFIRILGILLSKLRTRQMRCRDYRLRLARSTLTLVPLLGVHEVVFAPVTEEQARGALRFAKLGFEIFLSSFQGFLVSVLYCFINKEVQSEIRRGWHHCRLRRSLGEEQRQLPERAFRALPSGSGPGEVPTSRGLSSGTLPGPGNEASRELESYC
From the text: (§3) We note that the albumin-binding propensity of fatty acid-modified peptides can confound a pharmacological comparison of molecules, given the common use of albumin and serum as nonspecific blocking agents in biological assays. Therefore, to obviate this, entirely albumin-free assays supplemented with bovine casein or bacitracin were used to prevent nonspecific binding ([10]).
(§4) Functional potency (EC50)
(§5) and efficacy (% Top) of ligands to induce Gα s -GTPγS binding and cAMP accumulation in HEK293 cells expressing GIPR were determined. The equilibrium affinity (KD) of
(§6) ligands for the immobilized ectodomain of the GIPR were quantified by surface plasmon resonance. […]
(§7) SPR data were analyzed using T200 evaluation software (Cytiva). All data are presented as geometric means with SEM and n values
as §1

GLP-1R [5] = target: T1, GLP-1R; test: GLP-1R low density cAMP accumulation in HEK293 cells; assay type: cell-based; set-up: expressed in transfected cells; host or cells: HEK293; settings: efficacy (% Top), normalized to GLP-1(7-36); (SEM)
Protocol: (§8) Fig. 4. […] (B) Ligand-induced GTPγS binding of Gαs was performed using the GIPR-expressing membranes. […] (C) Agonist-stimulated cAMP production was measured in human GIPR expressing HEK293 cells. […] (E) Ligand-induced GTPγS binding of Gαs was performed using the GLP-1R-expressing membranes. […] (F) Agonist-stimulated cAMP production was measured in human GLP-1R-expressing HEK293 cells. […] Data presented are representative of n ≥ 3 independent experiments. Summarized data are shown in SI Appendix, Table 2. log M; log Molar.
as §3, with “([10]). […]” for “([10]).”
(§9) Middle Panel: The affinity (Ki) of ligands for the GLP-1R was […]
as §2
(§10) SPR data were analyzed using T200 evaluation software (Cytiva). All data are presented as geometric means with SEM and n values according to established practices. ND, not determined. NA, not applicable.
Target sequence in this assay (P43220 24-463): as the sequence (P43220 24-463) above

GLP-1R [6] = target: T1, GLP-1R; test: GLP-1R Gαs [35S]GTPγS binding, GLP-1R-expressing membranes; assay type: biochemical; set-up: expressed in transfected cells; host or cells: HEK293; settings: efficacy (% Top), normalized to GLP-1(7-36); (SEM)
Protocol: as §8
as §3, with “([10]). […]” for “([10]).”
as §9, §2, §10
Target sequence in this assay (P43220 24-463): as above

human GIPR [7] = target: T2, human GIPR; test: GIPR Gαs [35S]GTPγS binding, GIPR-expressing membranes; assay type: biochemical; settings: Gαs-GTPγS binding, GIPR-expressing membranes; albumin-free; geometric mean (SEM, n); read-out: GIPR GTPγS Recruitment EC50
Protocol: as §8, §3, §4, §5, §6, §7, §1

human GIPR [8] = target: T2, human GIPR; test: GIPR low density cAMP accumulation in HEK293 cells; assay type: cell-based
Protocol: as §8, §3, §4, §5, §6, §7, §1

GLP-1R Internalization Top (GLP-1R [1]): 73.1 (3.4) %
GLP-1R GRK2 Recruitment Top (GLP-1R [2]): 54.5 (2.1) %
GLP-1R β-Arr1 Recruitment Top (GLP-1R [3]): 35.3 (3.8) %
Ki (human GIPR [4]): > 128 nM
GLP-1R Low Density cAMP Top (GLP-1R [5]): 104 (4) %
GLP-1R GTPγS Recruitment Top (GLP-1R [6]): 80.7 (2.2) %
EC50 (human GIPR [7]): > 1000 nM
EC50 (human GIPR [8]; cAMP accumulation, HEK293 cells expressing GIPR, albumin-free, geometric mean (SEM, n)): > 4000 nM
GIPR Low Density cAMP Top (human GIPR [8]; efficacy (% Top), normalized to GIP(1-42), (SEM)): 39.4(9.5) %
SMILES: CC[C@H](C)[C@H](NC(=O)[C@H](Cc1ccccc1)NC(=O)[C@H](CCC(=O)O)NC(=O)[C@H](CCCCN)NC(=O)[C@H](C)NC(=O)[C@H](C)NC(=O)[C@H](CCC(N)=O)NC(=O)CNC(=O)[C@H](CCC(=O)O)NC(=O)[C@H](CC(C)C)NC(=O)[C@H](Cc1ccc(O)cc1)NC(=O)[C@H](CO)NC(=O)[C@H](CO)NC(=O)[C@@H](NC(=O)[C@H](CC(=O)O)NC(=O)[C@H](CO)NC(=O)[C@@H](NC(=O)[C@H](Cc1ccccc1)NC(=O)[C@@H](NC(=O)CNC(=O)[C@H](CCC(=O)O)NC(=O)[C@H](C)NC(=O)[C@@H](N)Cc1ccc(O)cc1)[C@@H](C)O)[C@@H](C)O)C(C)C)C(=O)N[C@@H](C)C(=O)N[C@@H](Cc1c[nH]c2ccccc12)C(=O)N[C@@H](CC(C)C)C(=O)N[C@H](C(=O)N[C@@H](CCCCN)C(=O)NCC(=O)N[C@@H](CCCNC(=N)N)C(N)=O)C(C)C [GLP-1 H7Y, reference compound]
